Measurements published in patent US20120035217A1, “Bis Aromatic Compounds for Use as LTC4 Synthase Inhibitors” (BIOLIPOX AB, priority 2009, published 2012).

Target: T1, Recombinant human LTC4 synthase (Homo sapiens, UniProt Q16873)
T1 construct: made in house; host or cells: Pichia pastoris ('Piccia pastoralis' [sic])
T1 sequence (Q16873 1-150): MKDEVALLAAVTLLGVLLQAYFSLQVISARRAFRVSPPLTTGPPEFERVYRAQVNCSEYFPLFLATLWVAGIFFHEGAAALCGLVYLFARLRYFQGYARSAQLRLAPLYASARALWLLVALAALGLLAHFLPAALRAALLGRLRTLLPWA
Assay: Biological in vitro assay: LTC4 synthase conversion of LTA4 to LTC4, HTRF detection
Format: biochemical
Conditions: for % inhibition: total concentration of title compound in the assay 10 μM
Experimental: In the assay, LTC4 synthase catalyses the reaction where the substrate LTA4 is converted to LTC4. Recombinant human LTC4 synthase is expressed in Piccia pastoralis and the purified enzyme is dissolved in 25 mM tris-buffer pH 7.8 supplemented with 0.1 mM glutathione (GSH) and stored at −80° C. The assay is performed in phosphate buffered saline (PBS) pH 7.4 and 5 mM GSH in 384-well plates.
The following is added chronologically to each well:
1. 48 μL LTC4 synthase in PBS with 5 mM GSH. The total protein concentration in this solution is 0.5 μg/mL. 2. 1 μL inhibitor in DMSO (final concentration 10 μM). 3. Incubation of the plate at room temperature for 10 min. 4. 1 μL LTA4 (final concentration 2.5 μM). 5. Incubation of the plate at room temperature for 5 min. 6. 10 μL of the incubation mixture is analysed using homogenous time resolved fluorescent (HTRF) detection.

Structure (SMILES) | IC50 [nM] | % inhibition [%]
Cc1cc2ncn(-c3ccc(C(=O)c4ccc(N(C)c5ccc(Cl)cc5)cc4)cc3C(=O)O)c2cc1C [Example 1, 5-{4-[(4-Chlorophenyl)(methyl)amino]benzoyl}-2-(5,6-dimethyl-1-benzimidazolyl)-benzoic acid] | 288 | 97
CN(c1ccc(Cl)cc1)c1ccc(C(=O)c2ccc(-n3cc(-c4ccccc4)nn3)c(C(=O)O)c2)cc1 [Example 2:1, 5-{4-[(4-Chlorophenyl)(methyl)amino]benzoyl}-2-(4-phenyl-1,2,3-triazol-1-yl)-benzoic acid] | 326 | 99
CN(c1ccc(Cl)cc1)c1ccc(C(=O)c2ccc(-n3cc(-c4cccc(Cl)c4)nn3)c(C(=O)O)c2)cc1 [Example 2:2, 5-{4-[(4-Chlorophenyl)(methyl)amino]benzoyl}-2-[4-(3-chlorophenyl)-1,2,3-triazol-1-yl]benzoic acid] | 214 | 99
CN(c1ccc(Cl)cc1)c1ccc(C(=O)c2ccc(-n3nncc3-c3ccccc3)c(C(=O)O)c2)cc1 [Example 3:1, 5-{4-[(4-Chlorophenyl)(methyl)amino]benzoyl}-2-(5-phenyl-1,2,3-triazol-1-yl)-benzoic acid] | 154 | 100
CN(c1ccc(Cl)cc1)c1ccc(C(=O)c2ccc(-n3nncc3-c3cccc(Cl)c3)c(C(=O)O)c2)cc1 [Example 3:2, 5-{4-[(4-Chlorophenyl)(methyl)amino]benzoyl}-2-[5-(3-chlorophenyl)-1,2,3-triazol-1-yl]benzoic acid] | 36 | 100
CN(c1ccc(Cl)cc1)c1ccc(C(=O)c2ccc(-c3nccn3-c3ccccc3)c(C(=O)O)c2)nc1 [Example 9, 5-{5-[(4-Chlorophenyl)(methyl)amino]picolinoyl}-2-(1-phenylimidazol-2-yl)benzoic acid] | 217 | 
